The values below come from US20110190336A1, “AZABENZIMIDAZOLONES” (CARA THERAPEUTICS, INC., priority 2008, published 2011).

Assay [1] addresses T1, human DP2 receptor (Homo sapiens, UniProt Q9Y5Y4).
T1 construct: expressed in transfected cells; host or cells: CHO-K1 FLP-In (Invitrogen, catalog no. R758-07), stably transfected
T1 sequence (Q9Y5Y4 1-395): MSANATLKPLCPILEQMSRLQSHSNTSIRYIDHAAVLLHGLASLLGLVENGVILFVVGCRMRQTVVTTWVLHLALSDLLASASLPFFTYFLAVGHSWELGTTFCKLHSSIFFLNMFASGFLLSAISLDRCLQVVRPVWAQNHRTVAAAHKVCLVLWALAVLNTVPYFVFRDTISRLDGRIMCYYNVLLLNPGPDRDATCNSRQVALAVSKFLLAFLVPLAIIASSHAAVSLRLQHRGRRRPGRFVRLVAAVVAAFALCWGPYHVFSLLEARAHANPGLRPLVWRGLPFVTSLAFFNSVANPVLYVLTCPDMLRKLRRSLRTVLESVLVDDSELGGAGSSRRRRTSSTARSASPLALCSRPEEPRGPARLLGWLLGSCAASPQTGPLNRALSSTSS
As to the kind of experiment: Prostaglandin D2 binding inhibition assay (scintillation proximity assay, 3H PGD2, membranes of transfected CHO cells). Conditions: SPA, 5.5 nM 3H PGD2, CHO-K1 FLP-In human DP2 membranes; upper limit determinable 30 μM; read-out: IC50 ranges for inhibition of PGD2 binding to human DP2. The method in brief:
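Membranes (5 μg) from CHO-K1 cells stably expressing human DP2 were mixed with WGA SPA beads and 5.5 nM 3H PGD2 in Tris buffer with 10 mM MgCl2, 100 mM NaCl, 0.1% BSA, plus compound. After 60 min at room temperature, CPM were read; IC50 from two-parameter nonlinear regression.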
On the technique in general: Scintillation proximity formats need no separation of bound from free tracer.

Assay [2] has as its target T1, human DP2 receptor. Nature of the assay: Measurement of inhibition of intracellular cAMP induction (LANCE cAMP TR-FRET). It counts as cell-based. Conditions: human DP2 cells. The protocol: The ability of compounds to act as antagonists or agonists at the human DP2 receptor was determined by measuring changes in intracellular cAMP levels using a LANCE cAMP detection kit (PerkinElmer, catalog no. AD0264) utilizing time-resolved fluorescence resonance energy transfer (TR-FRET).
Human DP2 cells were grown as described above. Cells were diluted to 2×10^5 cells/mL, and pre-incubated with 0.5 mM […] or IBMX (Sigma, catalog no. I7018). Antibody was added to all the cells as per the manufacturer's instructions. For antagonist experiments, cells were then pre-stimulated for 15 minutes with 4 μM of the water soluble forskolin derivative NKH-477 (Tocris, catalog no. 1603) to increase intracellular cAMP levels. An aliquot of cells was removed for use in uninduced controls. […] After a three hour equilibration, plates were read on an Envision multi-mode detector (PerkinElmer). TR-FRET was measured using a 330-380 nm excitation filter, 615 and 665 nm emission filters, and a 380 nm dichroic mirror set at a Z-height of 11 mm.
The cAMP concentration in each well was back-calculated from a cAMP standard curve run concurrently with each assay. Cyclic AMP responses were expressed as a percent of the difference between the maximum and minimum responses, determined from the induced and uninduced controls, respectively. […]
Background: Time-resolved FRET reads energy transfer from a long-lived donor to a nearby acceptor.

Bounds are passed on as bounds.

In general, IC50 refers to the concentration that inhibits the measured activity by half. The EC50 is the concentration needed to bring the measured effect to its halfway point. As to `CS(=O)(=O)c1ccccc1S(=O)(=O)N1CCC(n2c(=O)n(CC(=O)O)c3cccnc32)CC1` [Compound 63, 2-(3-(1-(2-(methylsulfonyl)phenyl-sulfonyl)piperidin-4-yl)-2-oxo-2,3-dihydro-1H-imidazo[4,5-b]pyridin-1-yl)acetic acid], the IC50 on human DP2 receptor [1] was below 1 µM. Besides, on human DP2 receptor [2] (4 μM NKH-477 pre-stimulation, 30 nM PGD2, read-out: EC50, antagonism of intracellular cAMP induction), the EC50 is below 1 µM. In addition, on human DP2 receptor [2] (intracellular cAMP), the “mode of action at human DP2 (antagonist or agonist)” value is listed as “antagonist”.
